In patent publication US20070075630A1, “Organic compositions” (priority 2005, published 2007):

Assay: solubility of organic semiconductor in solvent (Table 1, formulation and processing)
Type: physicochemical
Conditions: solvent THF
For `CC(C)CCCOc1ccc(-c2ccc(-c3ccc(-c4ccc(OCCCC(C)C)cc4)s3)s2)cc1` [5(4Me)-O-PTTP-O-5(4Me), 5,5′-bis(4-(4-methylpentyloxy)phenyl)-2,2′-bithiophene], the “solubility in THF” value was “solubility in THF about 5400 ppm. DSC: mp =250° C., smaller”.
In the case of `CCCCCC(CC)Oc1ccc(-c2ccc(-c3ccc(-c4ccc(OC(CC)CCCCC)cc4)s3)s2)cc1` (stereo not drawn) [6(1Et)-O-PTTP-O- 6(1Et), 5,5═-Bis-[4-(1-ethyl-hexyloxy)-phenyl]-[2,2′]bithiophenyl], the “solubility in THF” value is reported as “Well soluble in THF (about 330,000 ppm) DSC: mp = 97-102° C., (broad transition)”.
For `CC(COc1ccc(-c2ccc(-c3ccc(-c4ccc(OCC(C)COC5CCCCO5)cc4)s3)s2)cc1)COC1CCCCO1` (stereo not drawn) [3(3THPO,2Me)-O-PTTP- O-3(THPO,2Me), 5,5′-Bis-[4-(2-methyl-propoxy-tetrahydro-pyran)-phenoxy]-[2,2′]bithiophenyl], the “solubility in THF” value was “Well soluble in THF (about 75,000 ppm)”.
In the case of `CCCCCC(C)Oc1ccc(-c2ccc(-c3ccc(-c4ccc(OC(C)CCCCC)cc4)s3)s2)cc1` (stereo not drawn) [6(1Me)-O-PTTP-O- 6(1Me), 5,5′bis(4-(1-methylhexyloxy)phenyl)-2,2′-bithiophene], the “solubility in THF” value is reported as ~89,000 ppm.
For `CCC(CC)COc1ccc(-c2ccc(-c3ccc(-c4ccc(OCC(CC)CC)cc4)s3)s2)cc1` [4(2Et)-O-PTTP-O- 4(2Et), 5,5′-bis(4-(2-ethylbutyloxy)phenyl)-2,2′-bithiophene], the “solubility in THF” value was “solubility in THF about 4,900 ppm”.
In the case of `CC(CO)COc1ccc(-c2ccc(-c3ccc(-c4ccc(OCC(C)CO)cc4)s3)s2)cc1` (stereo not drawn) [3(3OH,2Me)-O-PTTP- O-3(3OH,2Me), 3-(4-{5′-[4-(3-Hydroxy-2-methyl-propoxy)-phenyl]-[2,2′]bithiophenyl-5-yl}-phenoxy)-2-methyl-propan-1-ol], the “solubility in THF” value is reported as “Low solubility in THF (600 ppm)”.
For `CCCCCCOc1ccc(-c2ccc(-c3ccc(-c4ccc(OCCCCCC)cc4)s3)s2)cc1` [6-O-PTTP-O-6, 5,5′-bis(4-hexyloxyphenyl)-2,2′-bithiophene], the “solubility in THF” value was “solubility in THF about 600 ppm, lowest value by far. Differential scanning calorimetry”.
For `CCCCC(C)COc1ccc(-c2ccc(-c3ccc(-c4ccc(OCC(C)CCCC)cc4)s3)s2)cc1` (stereo not drawn) [6(2Me)-O-PTTP-O- 6(2Me), 5,5′-bis(4-(2-methylhexyloxy)phenyl)-2,2′-bithiophene], the “solubility in THF” value was “sufficiently soluble in THF (about 61,000 ppm) DSC: mp = 197 °C”.
For `CC(C)(C)[Si](OCCCCCCOc1ccc(-c2ccc(-c3ccc(-c4ccc(OCCCCCCO[Si](c5ccccc5)(c5ccccc5)C(C)(C)C)cc4)s3)s2)cc1)(c1ccccc1)c1ccccc1` [6(6TBDPSO)-O- PTTP-O- 6(6TBDPSO), 5,5′-Bis-{4-[6-(tert-butyl-diphenyl-silanyloxy)-hexyloxy]-phenyl}-[2,2′]bithiophenyl], the “solubility in THF” value was “# THF (about 310,000 ppm)”.
In the case of `C=CC(C=C)OC(=O)CCCCCOc1ccc(-c2ccc(-c3ccc(-c4ccc(OCCCCCC(=O)OC(C=C)C=C)cc4)s3)s2)cc1` [6-[4-(5′-[5-(1-Vinyl-allyloxycarbonyl)-pentyloxy]-phenyl}-[2,2′]bithiophenyl-5-yl)-phenoxy]-hexanoic acid 1-vinyl-allyl ester], the “solubility in THF” value is reported as “well soluble in THF (131,000 ppm)”.
For `CC(C)CCCC(C)CCOc1ccc(-c2ccc(-c3ccc(-c4ccc(OCCC(C)CCCC(C)C)cc4)s3)s2)cc1` (stereo not drawn) [8(3,7Me)-O-PTTP-O- 8(3,7Me), 5,5′-bis(4-(3,7-dimethyloctyloxy)phenyl)-2,2′-bithiophene], the “solubility in THF” value was “solubility in THF about 12,000 ppm DCS: mp = 192° C.,”.

Same assay, conditions: solvent not stated
With `CCCOCCc1ccc(-c2ccc(-c3ccc(-c4ccc(CCOCCC)cc4)s3)s2)cc1` [3O2PTTP2O3, 5,5═-Bis(4-(propxyethyl)phenyl)-2,2′-bithiophene] the “solubility (in words, compared with 6PTTP6)” value was “Solubility like 6PTTP6”.
